Values quoted from earlier work, collected in US12357619B2, “Noradrenergic and specific serotonergic anxiolytic and antidepressant, method for the production and use thereof” (ALLA CHEM, LLC, priority 2020, dated 2025).
pKi: −log10 of the molar value.

Molecular target: T1, Serotonin 5-HT2C (Homo sapiens, UniProt P28335)
T1 sequence (P28335 33-458): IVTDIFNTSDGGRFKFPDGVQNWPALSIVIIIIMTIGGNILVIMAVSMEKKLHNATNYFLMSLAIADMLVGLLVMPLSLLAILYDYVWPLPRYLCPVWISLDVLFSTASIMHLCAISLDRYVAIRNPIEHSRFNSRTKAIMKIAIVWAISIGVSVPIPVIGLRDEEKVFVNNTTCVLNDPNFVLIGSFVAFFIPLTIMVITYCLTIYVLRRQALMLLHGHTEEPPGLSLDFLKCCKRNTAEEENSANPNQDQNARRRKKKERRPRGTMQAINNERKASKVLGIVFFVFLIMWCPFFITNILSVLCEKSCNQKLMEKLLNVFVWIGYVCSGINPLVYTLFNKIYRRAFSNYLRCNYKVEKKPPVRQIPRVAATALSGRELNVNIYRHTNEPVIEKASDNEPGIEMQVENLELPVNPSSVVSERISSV
Conditions: from en.wikipedia.org/wiki/Mirtazapine; cited from earlier work

In the case of `CN1CCN2c3ncccc3Cc3ccccc3C2C1` (stereo not shown) [Mirtazapine], the pKi is listed as 7.41 to 8.05.
